# How the values were obtained:
# [1] = test system: Bcl-xL, Bcl-2, survivin, VEGF, and cyclin D1 in A2780 cells; test: Western blot of STAT3 target proteins; assay type: cell-based, human; details: 10 and 20 μmol/L, 24-hour exposure
# Method: Equal volumes of DMSO (0.1% v/v) were present in each treatment. Following treatment, the cell lysates were prepared in non-denaturing lysis buffer containing 10 mmol/L Tris-HCl (pH 7.4), 150 mmol/L NaCl, 1% Triton X-100, 1 mmol/L EDTA, 1 mmol/L EGTA, 0.3 mmol/L phenylmethyl-sulfonyl fluoride, 0.2 mmol/L sodium orthovanadate, 0.5% NP40, 1 μg/mL aprotinin, and 1 μg/mL leupetin. The lysates were centrifuged at 10,000×g for 20 minutes at 4° C. and the supernatant was separated. The protein concentration in the lysates was determined using a Pierce detergent-compatible protein assay kit. For Western blotting, 25 to 50 μg of protein lysate per sample were denatured in 2×SDS-PAGE sample buffer and subjected to SDS-PAGE on a 10% tris-glycine gel. The separated proteins were transferred to a polyvinylidene fluoride membrane and were blocked with 5% nonfat milk powder (w/v) in TBST (10 mmol/L Tris, 10 mmol/L NaCl, 0.1% Tween 20) for 1 hour at room temperature or overnight at 4° C. The membranes were then incubated with the primary antibodies. The bound antibodies were detected with horseradish peroxidase-labeled sheep anti-mouse IgG or horseradish peroxidase-labeled donkey anti-rabbit IgG using an enhanced chemiluminescence detection system (ECL Advanced kit). Protein expressions were determined using the Image Gauge v. 3.45 software. […]
# hOSE cells = test: Cell viability by MTT assay, noncancerous hOSE control cells; assay type: cell-based, human
# Method: Cell viability was determined by a colorimetric assay using MTT. In the mitochondria of living cells, yellow MTT undergoes a reductive conversion to formazan, producing a purple color. Cells, grown to […] confluence in 75-mm flasks, were trypsinized, counted, seeded in 96-well plates with an average population of 7,000 cells per well, incubated overnight, and then treated with curcumin, H-4073, or HO-3867 for 24 hours. All experiments were done using eight replicates and, repeated at least thrice.
# [2] = Superoxide radical-scavenging by EPR (xanthine/xanthine oxidase, DEPMPO competition); details: 100 μM compound versus 1 mM DEPMPO
# Method: Electron paramagnetic resonance (EPR) spectroscopy was used to quantitatively determine the relative superoxide-scavenging ability of the DAPs in comparison with DEPMPO, a known superoxide scavenger. Superoxide radicals were generated using an aerated solution of PBS (pH 7.4) containing xanthine (0.2 mM), xanthine oxidase (0.02 U/ml), and diethylenetriamine pentaacetic acid (0.1 mM). The superoxide radicals (O2^−) generated by the xanhine-xanthine oxidase reaction were reacted with DEPMPO (1 mM) to form a paramagnetic adduct (DEPMPO-OOH), which was detected using X-band (9.8 GHz) EPR spectroscopy. In separate experimental groups, […], or SOD (500 U/ml) was added to the reaction mixture. […] The generation of the DEPMPO-OOH adduct was measured at 10 min after initiation of the reaction.
# Both N-hydroxypyrroline and nitroxide have antioxidant properties including SOD- and catalase-mimetic activity. Therefore, we determined the superoxide radical-scavenging ability of DAPs using a competitive reaction in the presence of DEPMPO. Superoxide radicals were generated using an aerobic solution of xanthine and xanthine oxidase and detected as DEPMPO-OOH adduct by EPR spectroscopy. The DAP compounds (100 μM) were used to compete with 1 mM DEPMPO for the superoxide ions. SOD (4.2 μM) was used as a positive control.
# A2780 and SKOV3 cells = test: Cell-invasion (Boyden chamber) assay; assay type: cell-based, human; details: 10 μM
# Method: Cell-migration assay was performed by wound-healing method. Cells were plated at equal density and grown to 90% confluence. Wounds were created using a sterile pipette tip. Cells were then rinsed with medium and replaced with the fresh medium and incubated with HO-3867 (10 μM). Areas of wound were marked and photographed at various time-points with a phase-contrast microscope. Cell-invasive assay was measured by an in vitro Boyden chamber assay. Briefly, 1×10^5 cells in 0.5 ml of serum-free RPMI 1640 medium were added to the wells of 8-μm-diameter pore membrane Boyden chambers, either coated with (BD Biosciences, Franklin Lake, N.J.) or without (Corning, Corning, N.Y.) Matrigel. Cells were allowed to invade for 24 hours. Cells that had not penetrated the filters were removed by scrubbing with cotton swabs. Chambers were fixed in 100% methanol for 2 min, stained in 0.5% crystal violet for 2 min, rinsed in PBS and examined using a bright-field microscope. Values for invasion were obtained by counting five fields per membrane and represented as the average of three independent experiments performed over multiple days.
# [3] = test system: HER1, SREBP1, ERK1/2, MMP-2 and VEGF in A2780 and SKOV3 cells; test: Blotting of FAS/FAK-regulating proteins; assay type: cell-based, human; details: 10 μM, 24 h
# Method: Cells in RPMI 1640 medium were treated with DMSO (control) or HO-3867 (10 μM) for 24 h. Equal volumes of DMSO (0.1% v/v) were present in each treatment. Following treatment, the cell lysates were prepared in nondenaturing lysis buffer containing 10-mM Tris-HCl (pH 7.4), 150-mM NaCl, 1% Triton X-100, 1-mM EDTA, 1-mM EGTA, 0.3-mM phenylmethylsulfonyl fluoride, 0.2-mM sodium orthovanadate, 0.5% NP40, 1-μg/ml aprotinin, and 1-μg/ml leupetin. The lysates were centrifuged at 10,000×g for 20 min at 4° C., and the supernatant was separated. The protein concentration in the lysates was determined using a Pierce detergent-compatible protein assay kit. For Western blotting, 25 to 50 μg of protein lysate per sample was denatured in 2×SDS-PAGE sample buffer and subjected to SDS-PAGE on a 10% tris-glycine gel. The separated proteins were transferred to a PVDF membrane and blocked with 5% nonfat milk powder (w/v) in TBST (10-mM Tris, 10-mM NaCl, 0.1% Tween 20) for 1 h at room temperature or overnight at 4° C. The membranes were then incubated with the primary antibodies. The bound antibodies were detected with horseradish peroxidase (HRP)-labeled sheep anti-mouse IgG or HRP-labeled donkey anti-rabbit IgG using an enhanced chemiluminescence detection system (ECL Advanced kit). Protein expressions were determined using Image Gauge version 3.45.
# [4] = test system: pSTAT3 (Tyr705 and Ser727) and phospho-JAK1 (Tyr1022/1023) in A2780 cells; test: Immunoblot and immunoprecipitation of JAK/STAT3 signaling; assay type: cell-based, human; details: 10 or 20 μmol/L, 24 hours
# Method: Equal volumes of DMSO (0.1% v/v) were present in each treatment. Following treatment, the cell lysates were prepared in non-denaturing lysis buffer containing 10 mmol/L Tris-HCl (pH 7.4), 150 mmol/L NaCl, 1% Triton X-100, 1 mmol/L EDTA, 1 mmol/L EGTA, 0.3 mmol/L phenylmethyl-sulfonyl fluoride, 0.2 mmol/L sodium orthovanadate, 0.5% NP40, 1 μg/mL aprotinin, and 1 μg/mL leupetin. The lysates were centrifuged at 10,000×g for 20 minutes at 4° C. and the supernatant was separated. The protein concentration in the lysates was determined using a Pierce detergent-compatible protein assay kit. For Western blotting, 25 to 50 μg of protein lysate per sample were denatured in 2×SDS-PAGE sample buffer and subjected to SDS-PAGE on a 10% tris-glycine gel. The separated proteins were transferred to a polyvinylidene fluoride membrane and were blocked with 5% nonfat milk powder (w/v) in TBST (10 mmol/L Tris, 10 mmol/L NaCl, 0.1% Tween 20) for 1 hour at room temperature or overnight at 4° C. The membranes were then incubated with the primary antibodies. The bound antibodies were detected with horseradish peroxidase-labeled sheep anti-mouse IgG or horseradish peroxidase-labeled donkey anti-rabbit IgG using an enhanced chemiluminescence detection system (ECL Advanced kit). Protein expressions were determined using the Image Gauge v. 3.45 software.
smiles,measurement,setting,value
"CC1(C)C=C(CN2C/C(=C\c3ccc(F)cc3)C(=O)/C(=C/c3ccc(F)cc3)C2)C(C)(C)N1O [HO-3867, 1-[(1-oxyl-2,2,5,5-tetramethyl-2,5-dihydro-1H-pyrrol-3-yl)methyl]-(3E,5E)-3,5-bis(4-fluorobenzylidene)piperidin-4-one]","Bcl-xL, Bcl-2, survivin, and VEGF levels",[1],clear reduction
same,cyclin D1 level,[1],no significant change
same,cytotoxicity to hOSE cells,hOSE cells; 20 μmol/L,significant cytotoxicity
same,toxicity to noncancerous hOSE cells compared with H-4073,hOSE cells; equivalent doses,significantly less toxic
same,cytotoxicity to hOSE cells,hOSE cells; up to 10 μmol/L,no significant cytotoxicity
same,diminution of the DEPMPO-OOH concentration,[2],−50%
same,cell invasion,"A2780 and SKOV3 cells; 24 hours, versus untreated cells",significant inhibition
same,VEGF-induced invasion,"A2780 and SKOV3 cells; 24-h incubation, versus VEGF group",significantly inhibited
same,"pHER2, pERK1/2, SREBP1, MMP-2, and VEGF",[3],inhibited
same,pSTAT3 (Tyr705 and Ser727) levels,[4],significantly decreased
same,phosphor-JAK1 (Tyr1022/1023),[4]; versus unexposed controls,substantial decrease
